From ChEMBL document CHEMBL5523759, “Discovery of Novel HDAC3 Inhibitors with PD-L1 Downregulating/Degrading and Antitumor Immune Effects” (J Med Chem, 2024)
Converted amounts (≈) assume the structure as drawn. The source made the active and inactive calls. No cut-off for these calls is given here.

Key:
B16-F10 [1] = experiment: Induction of apoptosis in mouse B16-F10 cells at 4 uM measured for 48 hrs by Annexin-V/FITC staining based flow cytometry analysis relative to control; format: functional
MCF7 = experiment: cells; conditions: Homo sapiens, MCF7, 48 h
Description: Antiproliferative activity against human MCF7 cells assessed as reduction in cell viability measured for 48 hrs by MTT assay

[2] = Aqueous solubility of compound measured for 24 hrs by shake flask based HPLC analysis; format: physicochemical; conditions: buffer
B16-F10 [3] = experiment: Induction of cell cycle arrest in mouse B16-F10 cells assessed as accumulation of cells at G0/G1 phase measured for 48 hrs by flow cytometry analysis; format: functional, cell-based; conditions: dose 0.5-4 µM
B16-F10 [4] = experiment: Induction of apoptosis in mouse B16-F10 cells at 8 uM measured for 48 hrs by Annexin-V/FITC staining based flow cytometry analysis relative to control; format: functional
[5] = Antiproliferative activity against human MINO cells assessed as reduction in cell viability measured for 48 hrs by MTT assay; format: functional, cell-based
Histone deacetylase 7 = target: T1, Histone deacetylase 7 (Homo sapiens, UniProt Q8WUI4); experiment: Inhibition of human recombinant HDAC7 using Ac-Leu-Gly-Lys (Tfa)-AMC as substrate preincubated with compound for 10 mins followed by substrate addition and measured after 45 mins by TECAN microtiter plate reader analysis
T1 sequence (Q8WUI4 whole entry): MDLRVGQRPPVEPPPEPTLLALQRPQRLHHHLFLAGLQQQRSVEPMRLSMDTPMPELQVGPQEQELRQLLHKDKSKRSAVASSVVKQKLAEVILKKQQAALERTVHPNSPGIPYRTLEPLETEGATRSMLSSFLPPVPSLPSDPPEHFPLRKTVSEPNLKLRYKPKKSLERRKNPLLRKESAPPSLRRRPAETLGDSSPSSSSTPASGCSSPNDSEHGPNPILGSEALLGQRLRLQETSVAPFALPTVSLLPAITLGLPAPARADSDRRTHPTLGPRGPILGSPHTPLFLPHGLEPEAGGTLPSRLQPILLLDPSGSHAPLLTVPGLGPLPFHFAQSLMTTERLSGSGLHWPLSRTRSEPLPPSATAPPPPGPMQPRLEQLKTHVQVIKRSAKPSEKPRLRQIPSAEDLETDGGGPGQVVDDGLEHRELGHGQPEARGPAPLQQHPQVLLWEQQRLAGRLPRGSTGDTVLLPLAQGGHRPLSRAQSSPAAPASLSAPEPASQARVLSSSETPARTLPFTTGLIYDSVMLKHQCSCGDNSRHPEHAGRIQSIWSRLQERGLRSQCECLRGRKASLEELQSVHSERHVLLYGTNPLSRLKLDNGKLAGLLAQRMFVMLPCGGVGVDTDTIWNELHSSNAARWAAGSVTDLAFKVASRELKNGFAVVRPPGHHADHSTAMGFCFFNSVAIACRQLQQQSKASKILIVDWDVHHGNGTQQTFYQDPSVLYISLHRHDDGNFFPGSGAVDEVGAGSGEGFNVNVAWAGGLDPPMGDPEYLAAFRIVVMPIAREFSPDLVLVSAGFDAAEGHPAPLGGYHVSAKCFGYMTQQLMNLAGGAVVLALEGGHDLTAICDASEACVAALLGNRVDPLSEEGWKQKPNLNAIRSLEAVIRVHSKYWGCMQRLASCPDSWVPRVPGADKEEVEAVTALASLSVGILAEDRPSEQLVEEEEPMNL

B16-F10 [6] = experiment: Induction of cell cycle arrest in mouse B16-F10 cells assessed as accumulation of cells at G2/M phase measured for 48 hrs by flow cytometry analysis; format: functional, cell-based; conditions: dose 0.5-4 µM
B16-F10 [7] = experiment: Induction of apoptosis in mouse B16-F10 cells at 0.5 uM measured for 48 hrs by Annexin-V/FITC staining based flow cytometry analysis relative to control; format: functional
B16-F10 [8] = experiment: Induction of apoptosis in mouse B16-F10 cells at 1 uM measured for 48 hrs by Annexin-V/FITC staining based flow cytometry analysis relative to control; format: functional
B16-F10 [9] = experiment: Antiproliferative activity against mouse B16-F10 cells assessed as reduction in cell viability measured for 48 hrs by MTT assay; format: functional, cell-based; conditions: B16-F10, 48 h
Histone deacetylase 1 = Histone deacetylase 1 (Homo sapiens, UniProt Q13547); experiment: Inhibition of human recombinant HDAC1 using Ac-Leu-Gly-Lys (Ac)-AMC as substrate preincubated with compound for 10 mins followed by substrate addition and measured after 45 mins by TECAN microtiter plate reader analysis
[10] = target: T2, Protein deacetylase HDAC6 (Mus musculus) (UniProt Q9Z2V5); experiment: Inhibition of HDAC6 in mouse B16-F10 cells assessed as effect on acetylated alpha-tubulin level at 1 to 2 uM measured for 24 hrs by Western blot analysis; format: cell-based; conditions: dose 1-2 µM
T2 sequence (whole entry): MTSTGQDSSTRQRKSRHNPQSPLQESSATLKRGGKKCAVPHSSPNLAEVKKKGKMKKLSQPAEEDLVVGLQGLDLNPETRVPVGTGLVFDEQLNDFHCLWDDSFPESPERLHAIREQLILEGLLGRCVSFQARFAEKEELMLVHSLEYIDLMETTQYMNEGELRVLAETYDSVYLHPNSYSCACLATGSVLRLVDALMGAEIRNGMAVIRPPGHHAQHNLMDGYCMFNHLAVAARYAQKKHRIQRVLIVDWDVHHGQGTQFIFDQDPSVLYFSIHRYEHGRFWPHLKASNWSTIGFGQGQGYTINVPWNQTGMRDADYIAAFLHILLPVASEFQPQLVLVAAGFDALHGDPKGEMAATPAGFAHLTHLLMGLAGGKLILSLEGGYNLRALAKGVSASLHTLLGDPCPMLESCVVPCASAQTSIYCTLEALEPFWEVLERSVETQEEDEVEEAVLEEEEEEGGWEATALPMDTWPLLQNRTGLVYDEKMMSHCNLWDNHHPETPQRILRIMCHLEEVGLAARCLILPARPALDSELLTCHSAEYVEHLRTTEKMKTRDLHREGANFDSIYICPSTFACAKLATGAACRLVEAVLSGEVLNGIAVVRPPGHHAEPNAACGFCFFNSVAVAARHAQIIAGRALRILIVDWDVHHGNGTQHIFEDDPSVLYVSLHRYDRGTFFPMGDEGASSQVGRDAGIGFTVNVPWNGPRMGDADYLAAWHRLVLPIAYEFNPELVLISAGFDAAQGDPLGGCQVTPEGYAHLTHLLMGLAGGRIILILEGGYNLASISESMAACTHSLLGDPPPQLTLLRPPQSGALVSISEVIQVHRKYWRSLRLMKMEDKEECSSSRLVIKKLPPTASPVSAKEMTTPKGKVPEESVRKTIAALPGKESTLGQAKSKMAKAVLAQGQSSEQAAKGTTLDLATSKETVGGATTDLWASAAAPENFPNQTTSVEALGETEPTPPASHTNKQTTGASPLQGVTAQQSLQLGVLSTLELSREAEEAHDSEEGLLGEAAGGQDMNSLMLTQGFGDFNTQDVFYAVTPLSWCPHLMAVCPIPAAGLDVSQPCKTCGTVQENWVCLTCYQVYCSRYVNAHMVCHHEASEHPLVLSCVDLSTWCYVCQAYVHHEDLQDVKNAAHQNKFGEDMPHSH

Daudi = experiment: Antiproliferative activity against human Daudi cells assessed as reduction in cell viability measured for 48 hrs by MTT assay; format: functional, cell-based

Sequence of Histone deacetylase 1 (Q13547 whole entry): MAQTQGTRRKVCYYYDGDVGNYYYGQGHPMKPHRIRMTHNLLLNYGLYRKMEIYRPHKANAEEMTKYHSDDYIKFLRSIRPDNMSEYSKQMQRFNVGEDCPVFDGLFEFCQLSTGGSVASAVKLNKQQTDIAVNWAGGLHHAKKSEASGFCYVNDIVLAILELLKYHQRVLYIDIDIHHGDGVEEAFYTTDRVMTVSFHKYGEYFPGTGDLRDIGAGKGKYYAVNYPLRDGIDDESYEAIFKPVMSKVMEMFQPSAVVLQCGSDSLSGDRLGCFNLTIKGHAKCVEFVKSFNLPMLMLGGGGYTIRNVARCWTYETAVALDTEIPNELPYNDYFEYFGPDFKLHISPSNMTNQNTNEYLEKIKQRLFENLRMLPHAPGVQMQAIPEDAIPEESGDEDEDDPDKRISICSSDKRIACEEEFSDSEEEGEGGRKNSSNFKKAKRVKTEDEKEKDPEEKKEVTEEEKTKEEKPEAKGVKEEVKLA

Row | SMILES | Activity (B16-F10 [1]) [%] | IC50 (MCF7) [nM] | solubility thermodynamic at 24 h [2] [µg/mL] | Activity (B16-F10 [3]) | Activity (B16-F10 [4]) [%] | IC50 [5] [nM] | IC50 (Histone deacetylase 7) [nM] | Activity (B16-F10 [6]) | Activity (B16-F10 [7]) [%] | Activity (B16-F10 [8]) [%] | IC50 (B16-F10 [9]) [nM] | IC50 (Histone deacetylase 1) [nM] | inhibition [10] | Activity (Daudi)
1 | Nc1ccccc1NC(=O)c1ccc(-c2ncc(CNc3ccccc3)s2)cc1 | 20.96 | 3340 | 3.8 (≈ 9.49 µM) | Dose-Dependent Effect | 29.59 | 52 | > 10000 | Dose-Dependent Effect | 11 | 13.2 | 1340 | 510 | inactive | Active
2 | CCCNNC(=O)c1ccc(CNC(=O)c2ncc(CNc3ccccc3)s2)cc1 | 61.25 | 2940 | 15.6 (≈ 36.8 µM) | Dose-Dependent Effect | 71.07 | 30 | > 10000 | Dose-Dependent Effect | 21.23 | 31.49 | 1200 | 730 | inactive | Active
